These results are taken from patent US12497403B2, “Factor XIa inhibitors” (Merck Sharp & Dohme LLC, priority 2021, dated 2025).

pIC50: −log10 of the molar value. ≈ marks a conversion by molar mass, not a printed value. Read-outs that look alike come from different tables or passages of the source.

Series [1] deals with human Factor XIa (Homo sapiens, UniProt P03951). Put plainly: Factor XIa assay. The class given is biochemical. The note with it: human Factor XIa 0.04 nM, GPR-AFC substrate, 25° C., pH 7.4; read-out: FXIa IC50. On the procedure: (§1) The effectiveness of a compound of the present invention as an inhibitor of Coagulation Factor XIa can be determined using a relevant purified serine protease, and an appropriate synthetic substrate. The rate of hydrolysis of the chromogenic or fluorogenic substrate by the relevant serine protease was measured both in the absence and presence of compounds of the present invention. Assays were conducted at room temperature or at 37° C. […] A decrease in the rate of fluorescence change in the presence of inhibitor is indicative of enzyme inhibition. Such methods are known to one skilled in the art. The results of this assay are expressed as the half-maximal inhibitory concentrations (IC50), or the inhibitory constant, Ki.
Compounds were pre-incubated for 30 minutes at 25° C. with human (0.04 nM) Factor XIa in 50 mM HEPES buffer with 150 mM sodium chloride, 5 mM calcium chloride, 0.1% PEG 8000, pH 7.4. Factor XIa enzymatic activity was determined by addition of the substrate glycine-proline-arginine-7-amido-4-trifluoromethylcoumarin (GPR-AFC) and measurement of the fluorescence at 400/505 nm after a 60 minute incubation at 25° C. The % inhibition for each data point was calculated from the data and analyzed using the log (inhibitor) vs. response four parameters equation to determine the half-maximal inhibitory concentrations (IC50). The IC50 were converted to equilibrium inhibitory constants (Ki) using the Cheng-Prusoff equation.

The target in series [2] is T1, Human plasma kallikrein (Homo sapiens, UniProt P03952).
T1 construct: yields a heavy chain (371 amino acids) and a light chain (248 amino acids); purchased Enzyme Research Laboratories
Put plainly: Kallikrein assay (plasma kallikrein). The class given is biochemical. Particulars: purified Human plasma kallikrein 0.5 nM, Acetyl-K-P-R-AFC substrate, pH 7.4; read-out: pKal IC50. On the procedure:
as §1, with “Kallikrein” for “Coagulation Factor XIa”, “constant.” for “constant,”
Kallikrein determinations were made in 50 mM HEPES buffer at pH 7.4 containing 150 mM NaCl, 5 mM CaCl2, and 0.1% PEG 8000 (polyethylene glycol; Fisher Scientific). Determinations were made using purified Human plasma kallikrein at a final concentration of 0.5 nM (Enzyme Research Laboratories) and the synthetic substrate. Acetyl-K-P-R-AFC (Sigma # C6608) at a concentration of […].
Activity assays were performed by diluting a stock solution of substrate at least tenfold to a final concentration≤ 0.2 Km into a solution containing enzyme or enzyme equilibrated with inhibitor. Times required to achieve equilibration between enzyme and inhibitor were determined in control experiments. The reactions were performed under linear progress curve conditions and fluorescence increase measured at 405 Ex/510 Em nm. Values were converted to percent inhibition of the control reaction (after subtracting 100% Inhibition value). IC50 was determined by inflection point from a four parameter logistic curve fit. Ki was calculated using the Cheng Prusoff equation. Ki=IC50/(1+([S]/Km)).

Series [3] can be described thus: High-throughput (HT) solubility determination. The note with it: kinetic from dmso stock. The class given is physicochemical. How it is done: The chromatographic system consists of an Agilent 1290 UPLC/DAD system and ChemStation software, both from Agilent Technologies, USA. The separations are carried out on a Supelco Ascentis Express C18, 30 mm×3.0 mm I.D., 2.7 μm HPLC column. The mobile phase consists of Potassium phosphate buffered at pH 7 (mobile phase A) and acetonitrile (mobile phase B). The column oven temperature is set to 30° C. and the UPLC analysis consists of a gradient. The injection volume is 2 μL and the spectrophotometric detection is set to 215 and 238 nm.
A 10 mM stock solution of the compound in DMSO is supplied for analysis. 2.5 μL of stock solution (10 mM) was diluted into 247.5 μL of organic co-solvents (10% MeCN/80% MeOH/10% DMSO, v/v/v) to create a standard solution of 100 μM. To create the solubility solutions, 4.1 μL of 10 mM DMSO stock solution was diluted into […] of phosphate buffered saline (PBS) (pH 7) solution. A second 4.1 μL aliquot of 10 mM DMSO stock solution was added to 196 μL of PBS (pH 2) solution. A third 4.1 uL aliquot of 10 mM DMSO stock solution was added to 196 uL of FaSSIF (pH 6.5) solution. […] The equilibrated solubility solutions were filtered by centrifugation using a filter (0.45 μm, polypropylene). 50 μL each of the 100 μM standard solution and the filtered equilibrated solubility solutions were placed into a 384 well plate, and the plate was subsequently heat sealed.
Each standard and solubility solution was analyzed by UPLC/DAD. The solubility value was calculated by the following equation: Solubility=(Peak area of sample/Peak area of standard) (Standard concentration)

[4] abbreviates: FaSSIF pH 6.5, shaken 24 hours at 25° C., read-out: pH 6.5 (FaSSIF) solubility.
[5] abbreviates: phosphate buffered saline (PBS) pH 2, aqueous buffer, PBS pH 2, shaken 24 hours at 25° C., read-out: pH 2 solubility.

Sequence of human Factor XIa (P03951 388-625 limits assumed): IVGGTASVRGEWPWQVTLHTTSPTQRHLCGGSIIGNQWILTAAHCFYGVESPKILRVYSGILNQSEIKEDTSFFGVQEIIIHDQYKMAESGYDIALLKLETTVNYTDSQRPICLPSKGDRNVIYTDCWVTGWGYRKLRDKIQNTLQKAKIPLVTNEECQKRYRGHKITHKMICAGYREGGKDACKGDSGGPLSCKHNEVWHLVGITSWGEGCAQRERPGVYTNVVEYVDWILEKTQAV
Sequence of human Factor XIa (P03951 19-387 partner limits assumed): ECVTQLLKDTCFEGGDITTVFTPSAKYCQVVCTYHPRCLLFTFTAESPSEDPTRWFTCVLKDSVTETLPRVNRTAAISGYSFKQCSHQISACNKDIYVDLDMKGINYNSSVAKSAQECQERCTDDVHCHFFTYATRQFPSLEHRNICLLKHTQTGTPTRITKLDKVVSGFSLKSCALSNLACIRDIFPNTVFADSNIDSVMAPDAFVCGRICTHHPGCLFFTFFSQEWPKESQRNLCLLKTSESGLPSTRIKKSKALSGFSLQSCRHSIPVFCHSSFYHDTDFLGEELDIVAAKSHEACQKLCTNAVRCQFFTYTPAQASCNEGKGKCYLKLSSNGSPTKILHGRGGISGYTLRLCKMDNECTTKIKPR
T1 sequence (P03952 391-638 limits assumed): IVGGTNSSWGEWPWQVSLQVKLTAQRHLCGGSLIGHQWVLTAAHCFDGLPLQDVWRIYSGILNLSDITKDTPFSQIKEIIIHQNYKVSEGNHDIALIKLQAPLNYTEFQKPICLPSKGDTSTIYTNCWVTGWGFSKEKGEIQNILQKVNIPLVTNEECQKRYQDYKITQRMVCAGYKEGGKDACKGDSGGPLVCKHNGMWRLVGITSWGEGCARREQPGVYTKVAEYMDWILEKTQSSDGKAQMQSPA
T1 sequence (P03952 20-390 partner limits assumed): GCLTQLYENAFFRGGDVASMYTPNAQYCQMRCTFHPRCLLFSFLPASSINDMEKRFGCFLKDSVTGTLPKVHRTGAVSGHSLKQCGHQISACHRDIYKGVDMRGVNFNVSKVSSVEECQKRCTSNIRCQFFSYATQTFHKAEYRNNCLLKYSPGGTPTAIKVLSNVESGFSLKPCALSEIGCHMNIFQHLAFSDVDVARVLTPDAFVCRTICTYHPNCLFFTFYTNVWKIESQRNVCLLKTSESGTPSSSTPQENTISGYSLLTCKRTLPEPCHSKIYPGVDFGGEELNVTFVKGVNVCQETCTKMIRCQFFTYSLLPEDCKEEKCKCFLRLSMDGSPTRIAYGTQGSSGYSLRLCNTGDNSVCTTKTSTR

Usually pIC50 stands for the IC50 on a negative log10 scale, so that one unit is a factor of ten. Turning to `COC(=O)Nc1ccc2c(c1)NC(=O)C(C)(C)CCC[C@H](c1ccc(-c3cccc(Cl)c3F)c[n+]1[O-])c1nc-2c(C(=O)O)[nH]1` [Example 9, (R,Z)-2-(1^5-carboxy-2^4-((methoxycarbonyl)amino)-5,5-dimethyl-4-oxo-1^1H-3-aza-1(4,2)-imidazola-2(1,2)-benzenacyclononaphane-9-yl)-5-(3-chloro-2-fluorophenyl)pyridine 1-oxide], the figures for the pIC50 in series [1] and in series [2] were 9.60 and 8.96, respectively. Moreover, the solubility kinetic at 24 h in series [3] (setting [4]) was found to be 138 µM (≈ 85.8 µg/mL); in series [3] (setting [5]), 125 µM (≈ 77.8 µg/mL).

For the compound `COC(=O)Nc1ccc2c(c1)NC(=O)C(C)(C)CCC[C@H](c1ccc(-c3cc(F)ccc3-n3cc(C(F)(F)F)cn3)c[n+]1[O-])c1nc-2c(C(=O)O)[nH]1` [Example 8, (R,Z)-2-(1^5-carboxy-2^4-((methoxycarbonyl)amino)-5,5-dimethyl-4-oxo-1^1H-3-aza-1(4,2)-imidazola-2(1,2)-benzenacyclononaphane-9-yl)-5-(5-fluoro-2-(4-(trifluoromethyl)-1H -pyrazol-1-yl)phenyl)pyridine 1-oxide], the pIC50 is 9.41 in series [1] and 6.26 in series [2]. In addition, the solubility kinetic at 24 h in series [3] (setting [4]) is 141 µM (≈ 102 µg/mL); in series [3] (setting [5]), 154 µM (≈ 111 µg/mL).

For the compound `COC(=O)Nc1ccc2c(c1)NC(=O)C(C)(C)CCC[C@H](c1ccc(-c3cc(F)ccc3OC(F)F)c[n+]1[O-])c1nc-2c(C(=O)O)[nH]1.N` (single isomer, unassigned) [Example 7], the figures for the pIC50 in series [1] and in series [2] were 9.80 and 8.36, respectively. Besides, the figures for the solubility kinetic at 24 h in series [3] (setting [4]) and in series [3] (setting [5]) were 170 µM and 145 µM, respectively.
